For experiment [1], the system named is OVCAR-3 cells. Briefly: imaging-based nuclear count analysis (NCA) in OVCAR-3 cells. The experiment is classed as cell-based. Conditions: Homo sapiens, 96 h, cultured 4 days, Hoechst 33342 nuclear count, 0.1% DMSO. As to the method:
Test name: imaging-based nuclear count analysis (NCA) in OVCAR-3 cells
• a) When the cell confluence reached 80%-90%, the cells were treated. • b) The cells were resuspended in a medium and then counted and diluted at a desired density. • c) A cell suspension containing appropriate cells was added to the 384-well plate at 30 µL/well: 600 cells/well.
• a) 30 µL of 8% fixative (final concentration 4%) was added and the plate was incubated at room temperature for 30 min. • b) The plate was centrifuged at 1000RPM for 30s. • c) The plate was washed twice with 60 µl/well PBS. • d) After immobilization, the cells were permeabilized and stained in 60 µL of a wash buffer containing 2 µg/mL Hoechst 33342 DNA dye (1% BSA, 0.2% Triton X-100, 1X PBS). • e) The plate was sealed and incubated at room temperature in the dark for 1 h. • f) It was washed with PBS 3 times. • g) 50µLPBS/well was added and the plate was scanned using HCS. • h) Data acquisition and detection
High-reading control wells: cells + 30 nL DMSO; low-reading control wells: 10 µM AM-5308.
IC50 (nM) was calculated using GraphPad Prism 8 software and the effect-dose curves of the compound were plotted. Table 1 Bioactivity data of the compound of the present application

Experiment [2] has as its target T1, KIF18A (Homo sapiens, UniProt Q8NI77).
T1 sequence (Q8NI77 1-898): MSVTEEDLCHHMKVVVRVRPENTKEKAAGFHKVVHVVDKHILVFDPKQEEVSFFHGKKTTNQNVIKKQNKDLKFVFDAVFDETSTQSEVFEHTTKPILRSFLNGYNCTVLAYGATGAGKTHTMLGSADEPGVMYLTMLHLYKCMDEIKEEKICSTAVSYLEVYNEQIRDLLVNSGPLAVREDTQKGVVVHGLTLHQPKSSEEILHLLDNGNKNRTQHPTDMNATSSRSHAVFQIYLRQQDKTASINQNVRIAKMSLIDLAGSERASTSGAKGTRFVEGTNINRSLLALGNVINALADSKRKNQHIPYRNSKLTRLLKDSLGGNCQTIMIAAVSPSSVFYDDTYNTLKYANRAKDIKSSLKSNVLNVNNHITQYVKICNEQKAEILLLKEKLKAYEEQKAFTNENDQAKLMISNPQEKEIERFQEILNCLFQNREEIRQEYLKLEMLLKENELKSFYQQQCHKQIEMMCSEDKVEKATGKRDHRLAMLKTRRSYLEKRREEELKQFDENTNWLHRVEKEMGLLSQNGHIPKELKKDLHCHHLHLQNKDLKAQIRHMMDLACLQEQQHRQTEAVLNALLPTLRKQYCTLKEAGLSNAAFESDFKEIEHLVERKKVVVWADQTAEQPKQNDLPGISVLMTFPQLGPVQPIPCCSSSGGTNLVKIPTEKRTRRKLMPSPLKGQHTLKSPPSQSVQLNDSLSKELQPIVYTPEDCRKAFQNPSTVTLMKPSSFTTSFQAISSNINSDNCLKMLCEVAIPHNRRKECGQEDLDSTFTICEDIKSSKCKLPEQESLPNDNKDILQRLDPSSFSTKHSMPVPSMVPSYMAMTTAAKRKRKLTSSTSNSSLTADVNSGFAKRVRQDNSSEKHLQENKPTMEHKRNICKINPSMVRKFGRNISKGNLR
Briefly: KIF18A enzyme activity test (ADP Glo). It is filed as biochemical. To be noted: ADP Glo luminescence, 60 min reaction at room temperature, 1% DMSO. How it is done: Test name: KIF18A enzyme activity test
• 1) Compound dilution and treatment: The final concentrations of AM-5308: 10000, 3333.3, 1111.1, 370.3, 123.4, 41.1, 13.7, 4.5, 1.5, 0.5 nM, the final testing concentrations of the testing compound: 10000, 3333.3, 1111.1, 370.3, 123.4, 41.1, 13.7, 4.5, 1.5 and 0.5 nM. • 2) To each well of the reaction plate, 100 nL of the diluted compound stock solution was transferred using Echo 655. The final concentration of DMSO was 1%. • 3) The reaction plate was sealed with a sealing membrane and centrifuged at 1000g for 1 min. • 4) A 2× enzyme solution was prepared with 1× reaction buffer. • 5) To each well of the reaction plate, 5 µL of 2×enzyme solution was added. The plate was sealed with a sealing membrane, centrifuged at 1000g for 1 min and left at room temperature for 15 min. • 6) A 2× ATP solution was prepared with 1× reaction buffer. • 7) To the reaction plate, 5 µL of 2×ATP solution was added, the plate was centrifuged at 1000g for 1 min, and the reaction was started. • 8) The system was allowed to react at room temperature for 60 min. • 9) 10 µL of ADP Glo reagent was added. The system was centrifuged at 1000 g for 1 min and incubated at room temperature for 60 min. • 10) 20 µL of kinase detection reagent was added. The system was centrifuged at 1000 g for 1 min, and incubated at room temperature for 60 min. • 11) The system was centrifuged at 1000 g for 1 min. • 12) The luminescence signals were read on Envision 2104.
The inhibition percentage is calculated as follows: %inhibition = 100−(Signalcmpd−SignalAve_PC)/(SignalAve_VC−SignalAve_PC) × 100 [formula] • Signalcmpd: Average value of the test compound on the reaction plate. • SignalAve_PC: Average value of the positive control (AM-5308) on the reaction plate. • SignalAve_VC: Average value of the negative control (DMSO) on the reaction plate.
IC50 was calculated and the dose-effect curve was fit: The IC50 of the compound was obtained by non-linear fitting formula with GraphPad 8.0.
Z factor > 0.5; S/B > 2. Table 2 Enzyme activity data for the compound of the present application

In patent publication EP4567032A1, “KIF18A INHIBITOR COMPOUND, AND PHARMACEUTICAL COMPOSITION AND PREPARATION METHOD THEREFOR AND USE THEREOF” (Changchun Genescience Pharmaceutical Co., Ltd., priority 2022, dated 2024) one finds IC50 data, which are given here for seven compounds.

As to `O=C(Nc1cccc2c1nc1n2[C@H]2CC[C@@H]1C2)c1ccc(NS(=O)(=O)CCO)cc1N1CCC2(CC1)CC2` [Compound 96a, 4-(2-hydroxyethanesulfonylamino) -2-(6-azaspiro[2.5]octan-6-yl)-N-((1S,4R)-1,2,3,4-tetrahydro-1,4-methylenebenzo[4,5]imidazo [1,2-a]pyridin-6-yl)benzamide], the IC50 stood at 60.9 nM in experiment [1] and 5.35 nM in experiment [2].

In the case of `O=C(Nc1cccc2c1nc1n2CCC1)c1ccc(NS(=O)(=O)CCO)cc1N1CCC2(CC1)CC2` [Compound 36, N-(2,3-dihydro-1H-benzo[d]pyrrolo[1,2-a]imidazol-5-yl)-4-(2-hydroxyethanesulfonylamino)-2-(6-azaspiro[2.5]octan-6-yl)benzamide], the IC50 in experiment [1] was 72.2 nM; in experiment [2], 13.7 nM.

`O=C(Nc1cccc2c1nc1n2CCCCC1)c1ccc(NS(=O)(=O)CCO)cc1N1CCC2(CC1)CC2` [Compound 97, 4-(2-hydroxyethanesulfonylamino)-2-(6-azaspiro[2.5]octan-6-yl)-N-(7,8,9,10-tetrahydro-6H-benzo[4,5]imidazo[1,2-a]azepin-4-yl)benzamide]: the IC50 was 58.8 nM in experiment [1] and 9.09 nM in experiment [2].

With `COc1ccc2c(NC(=O)c3ccc(NS(=O)(=O)CCO)cc3N3CCC4(CC3)CC4)cccc2c1` [Compound 1, 2-{6-azaspiro[2.5]octan-6-yl}-4-(2-hydroxyethanesulfonylamino)-N-(6-methoxynaphthalen-1-yl)benzamide], the IC50 in experiment [1] amounted to 163 nM; in experiment [2], 21.2 nM.

For the compound `O=C(Nc1cccc2c1nc1n2CCCC1)c1ccc(NS(=O)(=O)CCO)cc1N1CCC2(CC1)CC2` [Compound 22, 4-(2-hydroxyethanesulfonylamino)-2-(6-azaspiro[2.5]octan-6-yl)-N-(benzo[4,5]imidazo[1,2-a]piperidin-6-yl)benzamide], the IC50 was 143 nM in experiment [1] and 21.3 nM in experiment [2].

In the case of `O=C(Nc1cccc2c1nc1n2C2CCC1C2)c1ccc(NS(=O)(=O)CCO)cc1N1CCC2(CC1)CC2` (centres unmarked) [Compound 96, 4-(2-hydroxyethanesulfonylamino)-2-(6-azaspiro[2.5]octan-6-yl)-N-(1,2,3,4-tetrahydro-1,4-methylenebenzo[4,5]imidazo[1,2-a]pyridin-6-yl)benzamide], the IC50 in experiment [1] turned out to be 89.7 nM; in experiment [2] it was 8.97 nM.

On to `CC1CCCn2c1nc1c(NC(=O)c3ccc(NS(=O)(=O)CCO)cc3N3CCC4(CC3)CC4)cccc12` (centres unmarked) [Compound 98, 4-(2-hydroxyethanesulfonylamino)-N-(4-methyl-1,2,3,4-tetrahydrobenzo[4,5]imidazo[1,2-a]pyridin-6-yl)-2-(6-azaspiro[2.5]octan-6-yl)benzamide], for which the IC50 in experiment [1] amounted to 170 nM; in experiment [2], 26.5 nM.

By IC50 is commonly meant the midpoint of a concentration-inhibition curve.
